pIC50: −log10 of the molar value.
Test system: T47D (PIK3CA H1047R) cells
Assay: pS473 AKT assay with 2.5% FBS, T47D cells
Type: cell-based
Conditions: Homo sapiens, pSer473 AKT, DMEM with 2.5% FBS, 2 h treatment, read-out: T47D_IC50
Method in brief: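 In-cell chemiluminescent ELISA of AKT Ser473 phosphorylation, using anti-pSer473 primary and HRP secondary antibodies on fixed cells. T47D (PIK3CA H1047R) cells had 2 h of compound treatment in DMEM containing 2.5% FBS; IC50 derived from dose-response.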

Compound	pIC50
Cc1cc(C(C)Nc2ccc(Cl)nc2-c2ccc3ncccc3c2)c2c(c1)c(=O)n(C)c1c2cnn1C1CCN(S(C)(=O)=O)CC1 (stereo not shown) [Example 192, 9-(1-((6-chloro-2-(quinolin-6-yl)pyridin-3-yl)amino)ethyl)-4,7-dimethyl-3-(1-(methylsulfonyl)piperidin-4-yl)-3,4-dihydro-5H-pyrazolo[3,4-c]isoquinolin-5-one]	> 6.00
Cc1cc(C(C)Nc2ccc(Cl)nc2-c2noc(=O)[nH]2)c2c(c1)c(=O)n(C)c1c2cnn1CC1CC1 (stereo not shown) [Compound 68, 3-(6-Chloro-3-((1-(3-(cyclopropylmethyl)-4,7-dimethyl-5-oxo-4,5-dihydro-3H-pyrazolo[3,4-c]isoquinolin-9-yl)ethyl)amino)pyridin-2-yl)-1,2,4-oxadiazol-5(4H)-one]	> 6.00
Cc1cc(C(C)Nc2ccc(Cl)nc2-c2cnn(C)c2)c2c(c1)c(=O)n(C)c1nn(C3CCN(C(=O)N(C)C)CC3)cc21 (stereo not shown) [Example 211, 4-(9-(1-((6-chloro-2-(1-methyl-1H-pyrazol-4-yl)pyridin-3-yl)amino)ethyl)-4,7-dimethyl-5-oxo-4,5-dihydro-2H-pyrazolo[3,4-c]isoquinolin-2-yl)-N,N-dimethylpiperidine-1-carboxamide]	> 6.00
Cc1cc(C(C)Nc2ccccc2C(=O)O)c2c(c1)c(=O)n1c3c2cnn3CCC1 (stereo not shown) [Compound I-36, 2-((1-(8-Methyl-6-oxo-4,5-dihydro-3H,6H-2,2a,5a-triazaaceanthrylen-10-yl)ethyl)amino)benzoic acid]	> 6.00
Cc1cc(C(C)Nc2ccc(Cl)nc2-c2ccc(=O)n(C)c2)c2c(c1)c(=O)n1c3c2cnn3C(CO)CC1 (stereo not shown) [Example 289, 10-(1-((6-chloro-1′-methyl-6′-oxo-1′,6′-dihydro-[2,3′-bipyridin]-3-yl)amino)ethyl)-3-(hydroxymethyl)-8-methyl-4,5-dihydro-3H,6H-2,2a,5a-triazaaceanthrylen-6-one]	> 6.00
COc1ccc(-c2nc(Cl)ccc2NC(C)c2cc(C)cc3c(=O)n4c5c(cnn5CCC4)c23)cn1 (stereo not shown) [Compound 311, 10-(1-((6-chloro-6′-methoxy-[2,3′-bipyridin]-3-yl)amino)ethyl)-8-methyl-4,5-dihydro-3H,6H-2,2a,5a-triazaaceanthrylen-6-one]	> 6.00
Cc1cc(C(C)Nc2ccc(Cl)nc2C(=O)O)c2c(c1)c(=O)n1c3c2cnn3C(C)CC1 (stereo not shown) [Compound I-39, 6-Chloro-3-((1-(3,8-dimethyl-6-oxo-4,5-dihydro-3H,6H-2,2a,5a-triazaaceanthrylen-10-yl)ethyl)amino)picolinic acid]	> 6.00
Cc1cc(C(C)Nc2ccc(Cl)nc2-c2nnco2)c2c(c1)c(=O)n1c3c2cnn3CCC1 (stereo not shown) [Compound 294, 10-(1-((6-chloro-2-(1,3,4-oxadiazol-2-yl)pyridin-3-yl)amino)ethyl)-8-methyl-4,5-dihydro-3H,6H-2,2a,5a-triazaaceanthrylen-6-one]	> 6.00
Cc1cc(C(C)Nc2ccc(C)nc2-c2ccnc(C)c2)c2c(c1)c(=O)n1c3c2cnn3CCC1 (stereo not shown) [Compound 320, 10-(1-((2′,6-dimethyl-[2,4′-bipyridin]-3-yl)amino)ethyl)-8-methyl-4,5-dihydro-3H,6H-2,2a,5a-triazaaceanthrylen-6-one]	> 6.00
CCn1ncc2c3c(C(C)Nc4ccc(C)nc4C(=O)O)cc(C)cc3c(=O)n(C)c21 (stereo not shown) [Compound I-20, 3-((1-(3-Ethyl-4,7-dimethyl-5-oxo-4,5-dihydro-3H-pyrazolo[3,4-c]isoquinolin-9-yl)ethyl)amino)-6-methylpicolinic acid]	> 6.00

Now from value to compound:

pIC50	Compound
> 6.00	Cc1cc(C(C)Nc2ccc(Cl)nc2-c2ncn(C)n2)c2c(c1)c(=O)n(C)c1c2cnn1C1CN(C2CC2)C1 (stereo not shown) [Compound 90, 9-(1-((6-chloro-2-(1-methyl-1H-1,2,4-triazol-3-yl)pyridin-3-yl)amino)ethyl)-3-(1-cyclopropylazetidin-3-yl)-4,7-dimethyl-3,4-dihydro-5H-pyrazolo[3,4-c]isoquinolin-5-one]
> 6.00	Cc1cc(C(C)Nc2ccc(Cl)nc2-c2ncn(C)n2)c2c(c1)c(=O)n(C)c1c2cnn1C1CN(CC(F)F)C1 (stereo not shown) [Compound 94, 9-(1-((6-chloro-2-(1-methyl-1H-1,2,4-triazol-3-yl)pyridin-3-yl)amino)ethyl)-3-(1-(2,2-difluoroethyl)azetidin-3-yl)-4,7-dimethyl-3,4-dihydro-5H-pyrazolo[3,4-c]isoquinolin-5-one]
> 6.00	CCn1c(=O)c2cc(C)cc(C(C)Nc3ccc(Cl)nc3-c3ncn(C)n3)c2c2cn(C3CCOCC3)nc21 (stereo not shown) [Example 199, 9-(1-((6-Chloro-2-(1-methyl-1H-1,2,4-triazol-3-yl)pyridin-3-yl)amino)ethyl)-4-ethyl-7-methyl-2-(tetrahydro-2H-pyran-4-yl)-2,4-dihydro-5H-pyrazolo[3,4-c]isoquinolin-5-one]
> 6.00	Cc1cc(C(C)Nc2ccc(Cl)nc2-c2cnn(C)c2)c2c(c1)c(=O)n(C)c1c2cnn1C1CCN(C(=O)N(C)C)CC1 (stereo not shown) [Example 186, 4-(9-(1-((6-chloro-2-(1-methyl-1H-pyrazol-4-yl)pyridin-3-yl)amino)ethyl)-4,7-dimethyl-5-oxo-4,5-dihydro-3H-pyrazolo[3,4-c]isoquinolin-3-yl)-N,N-dimethylpiperidine-1-carboxamide]
> 6.00	Cc1cc(C(C)Nc2ccc(Cl)nc2-c2ncn(C)n2)c2c(c1)c(=O)n(C)c1c2cnn1C1CN(S(C)(=O)=O)C1 (stereo not shown) [Compound 99, 9-(1-((6-chloro-2-(1-methyl-1H-1,2,4-triazol-3-yl)pyridin-3-yl)amino)ethyl)-4,7-dimethyl-3-(1-(methylsulfonyl)azetidin-3-yl)-3,4-dihydro-5H-pyrazolo[3,4-c]isoquinolin-5-one]
> 6.00	[2H]C([2H])([2H])n1c(=O)c2cc(C)cc(C(C)Nc3ccc(Cl)nc3-c3cnn(C)c3)c2c2cnn(C3CCN(CC#N)C3)c21 (stereo not shown) [Compound 144, 2-(3-(9-(1-((6-chloro-2-(1-methyl-1H-pyrazol-4-yl)pyridin-3-yl)amino)ethyl)-7-methyl-4-(methyl-d3)-5-oxo-4,5-dihydro-3H-pyrazolo[3,4-c]isoquinolin-3-yl)pyrrolidin-1-yl)acetonitrile]
> 6.00	CC(=O)N1CCC(n2cc3c4c(C(C)Nc5ccc(Cl)nc5-c5cnn(C)c5)cc(C)cc4c(=O)n(C)c3n2)CC1 (stereo not shown) [Example 209, 2-(1-Acetylpiperidin-4-yl)-9-(1-((6-chloro-2-(1-methyl-1H-pyrazol-4-yl)pyridin-3-yl)amino)ethyl)-4,7-dimethyl-2,4-dihydro-5H-pyrazolo[3,4-c]isoquinolin-5-one]
> 6.00	CCn1c(=O)c2cc(C)cc(C(C)Nc3ccc(Cl)nc3-c3ncn(C)n3)c2c2cn(C3CCN(C(C)=O)CC3)nc21 (stereo not shown) [Example 202, 2-(1-Acetylpiperidin-4-yl)-9-(1-((6-chloro-2-(1-methyl-1H-1,2,4-triazol-3-yl)pyridin-3-yl)amino)ethyl)-4-ethyl-7-methyl-2,4-dihydro-5H-pyrazolo[3,4-c]isoquinolin-5-one]
> 6.00	Cc1cc(C(C)Nc2ccc(Cl)nc2-c2cnn(C)c2)c2c(c1)c(=O)n(C)c1nn(C3CCN(C)CC3)cc21 (stereo not shown) [Example 206, 9-(1-((6-Chloro-2-(1-methyl-1H-pyrazol-4-yl)pyridin-3-yl)amino)ethyl)-4,7-dimethyl-2-(1-methylpiperidin-4-yl)-2,4-dihydro-5H-pyrazolo[3,4-c]isoquinolin-5-one]
> 6.00	[2H]C([2H])([2H])n1c(=O)c2cc(C)cc(C(C)Nc3ccc(Cl)nc3-c3cnn(C)c3)c2c2cnn(C3CCN(CC(F)F)C3)c21 (stereo not shown) [Compound 143, 9-(1-((6-chloro-2-(1-methyl-1H-pyrazol-4-yl)pyridin-3-yl)amino)ethyl)-3-(1-(2,2-difluoroethyl)pyrrolidin-3-yl)-7-methyl-4-(methyl-d3)-3,4-dihydro-5H-pyrazolo[3,4-c]isoquinolin-5-one]
> 6.00	Cc1cc(C(C)Nc2ccc(Cl)nc2-c2ccncc2F)c2c(c1)c(=O)n(C)c1c2cnn1CC1CCN(CC(F)F)C1 (stereo not shown) [Compound 110, 9-(1-((6-Chloro-3′-fluoro-[2,4′-bipyridin]-3-yl)amino)ethyl)-3-((1-(2,2-difluoroethyl)pyrrolidin-3-yl)methyl)-4,7-dimethyl-3,4-dihydro-5H-pyrazolo[3,4-c]isoquinolin-5-one]
> 6.00	CCn1c(=O)c2cc(C)cc(C(C)Nc3ccc(Cl)nc3-c3ncn(C)n3)c2c2cnn(C3CCN(CC(C)(C)O)C3)c21 (stereo not shown) [Compound 146, 9-(1-((6-chloro-2-(1-methyl-1H-1,2,4-triazol-3-yl)pyridin-3-yl)amino)ethyl)-4-ethyl-3-(1-(2-hydroxy-2-methylpropyl)pyrrolidin-3-yl)-7-methyl-3,4-dihydro-5H-pyrazolo[3,4-c]isoquinolin-5-one]
> 6.00	Cc1cc(C(C)Nc2ccc(Cl)nc2-c2ncn(CCO)n2)c2c(c1)c(=O)n1c3c2cnn3CCC1 (stereo not shown) [Compound 297, 10-(1-((6-chloro-2-(1-(2-hydroxyethyl)-1H-1,2,4-triazol-3-yl)pyridin-3-yl)amino)ethyl)-8-methyl-4,5-dihydro-3H,6H-2,2a,5a-triazaaceanthrylen-6-one]
> 6.00	Cc1cc(C(C)Nc2ccc(Cl)nc2-c2ncn(C)n2)c2c(c1)c(=O)n(C)c1c2cnn1C1CCN(CC(F)F)CC1 (stereo not shown) [Compound 181, 9-(1-((6-Chloro-2-(1-methyl-1H-1,2,4-triazol-3-yl)pyridin-3-yl)amino)ethyl)-3-(1-(2,2-difluoroethyl)piperidin-4-yl)-4,7-dimethyl-3,4-dihydro-5H-pyrazolo[3,4-c]isoquinolin-5-one]
> 6.00	Cc1cc(C(C)Nc2ccc(Cl)nc2-c2ncn(C)n2)c2c(c1)c(=O)n(C)c1c2cnn1C1CN(C(=O)CN(C)C)C1 (stereo not shown) [Compound 104, 9-(1-((6-Chloro-2-(1-methyl-1H-1,2,4-triazol-3-yl)pyridin-3-yl)amino)ethyl)-3-(1-(dimethylglycyl)azetidin-3-yl)-4,7-dimethyl-3,4-dihydro-5H-pyrazolo[3,4-c]isoquinolin-5-one]

From patent US20250270213A1, “PI3Ka INHIBITORS” (Synnovation Therapeutics, Inc., priority 2022, published 2025)
